This note sets out measurements from ChEMBL document CHEMBL2150920, “Discovery of a potent and selective small molecule hGPR91 antagonist” (Bioorg Med Chem Lett, 2011).

A short description of series [1]: AUC (0 to 8 hrs) in Wistar rat plasma at 50 mg/kg, ip. On the set-up: time < 8 hr, dose 50 mg/kg, route intraperitoneal. Type of series: ADME, organism-based.
The nature of series [2]: Tmax in Wistar rat at 50 mg/kg, ip. The format is ADME, organism-based. On the set-up: dose 50 mg/kg, route intraperitoneal. The note with it: in vivo.
Series [3] concerns the target T1, Succinate receptor 1 (Rattus norvegicus, UniProt Q6IYF9).
T1 sequence (Q6IYF9 whole entry): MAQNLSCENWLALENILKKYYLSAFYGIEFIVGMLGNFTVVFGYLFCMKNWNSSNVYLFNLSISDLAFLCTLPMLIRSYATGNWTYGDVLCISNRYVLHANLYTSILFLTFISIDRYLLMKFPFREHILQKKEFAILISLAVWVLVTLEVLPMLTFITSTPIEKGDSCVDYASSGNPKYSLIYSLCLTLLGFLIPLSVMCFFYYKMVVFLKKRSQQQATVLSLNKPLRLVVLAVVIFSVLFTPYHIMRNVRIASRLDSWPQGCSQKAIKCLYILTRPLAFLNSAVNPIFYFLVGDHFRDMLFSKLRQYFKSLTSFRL
The series is described as follows: Antagonist activity at rat GPR91 receptor expressed in CHO-K1 cells co-expressing Galpha and Gqi5 G-protein assessed as inhibition of succinate-induced increase in intracellular calcium level by FLIPR assay. The format is functional, cell-based. (In general: Calcium flux is commonly read through the fluorescence of an indicator in the cells.)

A short description of series [4]: Cmax in Wistar rat at 50 mg/kg, ip by LC/MS/MS analysis. The format is ADME, organism-based. On the set-up: dose 50 mg/kg, route intraperitoneal. The note with it: in vivo.
The nature of series [5]: Plasma concentration in Wistar rat plasma at 50 mg/kg, ip at 8 hrs. The format is ADME, organism-based. On the set-up: dose 50 mg/kg, route intraperitoneal.
Series [6] concerns the target 2-oxoglutarate receptor 1 (Homo sapiens, UniProt Q96P68). Kind of series: Antagonist activity at human GPR99 receptor expressed in CHO-K1 cells co-expressing Galpha and Gqi5 G-protein assessed as inhibition of succinate-induced increase in intracellular calcium level at by FLIPR assay. Type of series: functional, cell-based.
Series [7] is described as follows: Plasma clearance in Wistar rat at 5 mg/kg, iv. Type of series: ADME, organism-based. More on the design: dose 5 mg/kg, route intravenous.
Series [8] in a line: Terminal half life in Wistar rat at 5 mg/kg, iv. Type of series: ADME, organism-based. More on the design: dose 5 mg/kg, route intravenous. The note with it: in vivo, read-out: beta t1/2 (converted).
The nature of series [9]: Volume of distribution at steady state in Wistar rat at 5 mg/kg, iv. The format is ADME, organism-based. On the set-up: dose 5 mg/kg, route intravenous. The note with it: in vivo, read-out: Vdss.
The target of series [10] is T2, Succinate receptor 1 (Homo sapiens, UniProt Q9BXA5).
T2 sequence (Q9BXA5 whole entry): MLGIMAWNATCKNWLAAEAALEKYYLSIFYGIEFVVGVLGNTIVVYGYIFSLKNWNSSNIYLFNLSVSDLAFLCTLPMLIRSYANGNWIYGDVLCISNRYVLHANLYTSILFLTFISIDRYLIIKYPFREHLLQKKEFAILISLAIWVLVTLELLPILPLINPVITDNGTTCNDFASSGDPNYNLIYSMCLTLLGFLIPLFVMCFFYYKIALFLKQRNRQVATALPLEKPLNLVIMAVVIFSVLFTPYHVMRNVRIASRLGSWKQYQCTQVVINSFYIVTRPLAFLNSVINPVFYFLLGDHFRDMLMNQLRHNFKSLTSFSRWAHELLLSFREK
The series is described as follows: Antagonist activity at human GPR91 receptor expressed in CHO-K1 cells co-expressing Galpha and Gqi5 G-protein assessed as inhibition of succinate-induced increase in intracellular calcium level by FLIPR assay. The format is functional, cell-based.

Series [11] in a line: Cmax in Wistar rat at 5 mg/kg, iv by LC/MS/MS analysis. Type of series: ADME, organism-based. More on the design: dose 5 mg/kg, route intravenous. Conditions: in vivo.
Series [12] deals with Liver microsomes. Kind of series: Intrinsic clearance in rat liver microsomes preincubated for 5 mins before addition of NADPH measured after 30 mins by LC/MS/MS analysis. Type of series: ADME, Microsome. Conditions: 0.5 h. For orientation: Microsomes from liver hold many membrane-bound enzymes, among them those of drug oxidation.
The subject of series [13] is Rattus norvegicus. The series is described as follows: Hypotensive activity in Wistar rat assessed as inhibition of succinate-induced increase in mean arterial pressure at 100 mg/kg, ip after 2 hrs post dose. The format is functional. Conditions: Artery, route intraperitoneal.
Series [14] is described as follows: AUC (0 to 24 hrs) in Wistar rat plasma at 100 mg/kg, ip. The format is ADME, organism-based. More on the design: time < 24 hr, dose 100 mg/kg, route intraperitoneal.
A short description of series [15]: Cmax in Wistar rat at 3 mg/kg, iv by LC/MS/MS analysis. Type of series: ADME, organism-based. More on the design: dose 3 mg/kg, route intravenous. The note with it: in vivo.
Series [16] can be described thus: Cmax in Wistar rat at 100 mg/kg, ip by LC/MS/MS analysis. Type of series: ADME, organism-based. The note with it: in vivo. More on the design: dose 100 mg/kg, route intraperitoneal.
In series [17] the test system is Rattus norvegicus. Kind of series: Hypotensive activity in Wistar rat assessed as inhibition of succinate-induced increase in mean arterial pressure at 100 mg/kg, ip after 4 hrs post dose. The format is functional. The note with it: Artery, route intraperitoneal.
Series [18] can be described thus: Plasma concentration in Wistar rat plasma at 100 mg/kg, ip at 2 hrs. Type of series: ADME, organism-based. On the set-up: dose 100 mg/kg, route intraperitoneal.
In series [19] the test system is Kidney. The series is described as follows: Drug concentration in Wistar rat kidney at 100 mg/kg, ip. Type of series: ADME, organism-based. On the set-up: dose 100 mg/kg, route intraperitoneal. Conditions: in vivo, read-out: Drug uptake.
Series [20] can be described thus: Plasma clearance in Wistar rat at 3 mg/kg, iv. The format is ADME, organism-based. On the set-up: dose 3 mg/kg, route intravenous.
Series [21] can be described thus: Plasma concentration in Wistar rat plasma at 100 mg/kg, ip at 8 hrs. The format is ADME, organism-based. On the set-up: dose 100 mg/kg, route intraperitoneal.
A short description of series [22]: Tmax in Wistar rat at 100 mg/kg, ip. More on the design: dose 100 mg/kg, route intraperitoneal. The format is ADME, organism-based. Conditions: in vivo.
Series [23] is described as follows: Volume of distribution at steady state in Wistar rat at 3 mg/kg, iv. The format is ADME, organism-based. On the set-up: dose 3 mg/kg, route intravenous. Conditions: in vivo, read-out: Vdss.
The nature of series [24]: Plasma concentration in Wistar rat plasma at 100 mg/kg, ip at 4 hrs. More on the design: dose 100 mg/kg, route intraperitoneal. The format is ADME, organism-based.
Series [25] in a line: Terminal half life in Wistar rat at 3 mg/kg, iv. The format is ADME, organism-based. More on the design: dose 3 mg/kg, route intravenous. Conditions: in vivo, read-out: beta t1/2 (converted).
Series [26] in a line: Plasma protein binding in Wistar rat at 100 mg/kg, ip. Type of series: ADME, organism-based. More on the design: dose 100 mg/kg, route intraperitoneal. The note with it: read-out: PPB.
Series [27] is described as follows: Plasma concentration in Wistar rat plasma at 50 mg/kg, ip at 2 hrs. Type of series: ADME, organism-based. More on the design: dose 50 mg/kg, route intraperitoneal.
Series [28] is described as follows: Plasma concentration in Wistar rat plasma at 50 mg/kg, ip at 4 hrs. More on the design: dose 50 mg/kg, route intraperitoneal. Type of series: ADME, organism-based.
Series [29] can be described thus: Plasma concentration in Wistar rat plasma at 30 mg/kg, po at 2 hrs. The format is ADME, organism-based. On the set-up: dose 30 mg/kg, route oral.
Series [30] in a line: Oral bioavailability in Wistar rat plasma at 30 mg/kg. The format is ADME, organism-based.
A short description of series [31]: Terminal half life in Wistar rat plasma at 30 mg/kg, po. The format is ADME, organism-based. More on the design: dose 30 mg/kg, route oral. Conditions: read-out: beta t1/2 (converted).
Series [32] is described as follows: Plasma concentration in Wistar rat plasma at 30 mg/kg, po at 4 hrs. The format is ADME, organism-based. On the set-up: dose 30 mg/kg, route oral.
Series [33] is described as follows: Cmax in Wistar rat at 30 mg/kg, po by LC/MS/MS analysis. Type of series: ADME, organism-based. More on the design: dose 30 mg/kg, route oral. The note with it: in vivo.
Series [34] in a line: AUC (0 to 24 hrs) in Wistar rat plasma at 30 mg/kg, po. The format is ADME, organism-based. More on the design: time < 24 hr, dose 30 mg/kg, route oral.
Series [35] can be described thus: Tmax in Wistar rat at 30 mg/kg, po. The format is ADME, organism-based. More on the design: dose 30 mg/kg, route oral. The note with it: in vivo.

2-oxoglutarate receptor 1, sequence (Q96P68 whole entry, looked up): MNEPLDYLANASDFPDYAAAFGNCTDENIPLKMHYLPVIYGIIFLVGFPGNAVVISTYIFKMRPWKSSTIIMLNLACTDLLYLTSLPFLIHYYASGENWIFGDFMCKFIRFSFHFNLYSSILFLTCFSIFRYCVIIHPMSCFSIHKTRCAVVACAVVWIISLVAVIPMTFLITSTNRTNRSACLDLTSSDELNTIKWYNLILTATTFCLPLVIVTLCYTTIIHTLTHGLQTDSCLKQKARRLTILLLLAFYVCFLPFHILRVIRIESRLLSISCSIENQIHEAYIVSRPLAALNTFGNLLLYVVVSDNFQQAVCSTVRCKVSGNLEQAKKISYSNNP

Turning to `O=C(CCCc1ccc2cccnc2n1)NCc1ccc(-c2cccc(Cl)c2)cc1`, the AUC(0-t) (commonly exposure summed from dosing to a finite time, without extrapolation to infinity) at 8 h in [1] worked out at 119 µM·h. In series [2], the Tmax (commonly the time from dosing to the highest level) was found to be 3.3 h. In addition, the IC50 (usually the concentration that inhibits the measured activity by half) worked out at 115 nM in series [3], 7000 nM in series [6] and 40 nM in series [10]. The figures for the Cmax in [4] and in [11] were 17.8 µM and 82.7 µM, respectively. In series [5], this compound had a concentration at 8 h of 15 µM. Further, the clearance (in general, the volume of plasma or blood freed of the substance per unit of time) in [7] is 4.4 mL/min/kg. The half-life in [8] was 1.2 h. Moreover, the Vd in [9] is 0.2 L/kg. The Intrinsic clearance in [12] was determined as 0.22 nmol/min/mg.
Take `C[C@H](NC(=O)Cc1ccc(-c2ccc3cccnc3n2)cc1)c1ccc(-c2ccc(F)c(C(F)(F)F)c2)cc1`: the inhibition in vivo – broadly, how much of the control response was suppressed – at 100 mg/kg in series [13] was 59%; in series [17], 76%. In [14], this compound yielded an AUC(0-t) at 24 h of 4.3 µM·h. The Cmax (commonly the maximum level reached in the sampled fluid or tissue) in series [15] came out at 9.8 µM; in series [16], 0.4 µM. The IC50 is above 30000 nM in [6] and 7 nM in series [10]. This compound came in with a concentration at 2 h in [18] of 0.24 µM. The concentration in series [19] turned out to be 8 µM. The clearance in series [20] amounted to 36 mL/min/kg. Moreover, the concentration at 8 h in series [21] came to 0.28 µM. Moreover, the Tmax in series [22] was 4.9 h. Besides, the Vd in series [23] was 1 L/kg. Also, the concentration at 4 h in series [24] came out at 0.33 µM. Besides, the half-life in series [25] was 0.9 h. In addition, the Intrinsic clearance in [12] is recorded as 0.2 nmol/min/mg. The fraction unbound in [26] stood at 0.01.
Take `FC(F)(F)c1cc(-c2nnc(CCCCc3ccc4cccnc4n3)o2)ccc1Cl`: in [1], the AUC(0-t) at 8 h was determined as 304 µM·h. In series [2], the Tmax is 2.7 h. For the same compound, the IC50 in series [3] is 435 nM; in series [6], above 30000 nM; in series [10], 160 nM. For the same compound, the Cmax in [4] stood at 21 µM; in series [11] it was 92 µM. Besides, in series [5], the concentration at 8 h worked out at 15 µM. The clearance in [7] worked out at 4.8 mL/min/kg. The half-life in [8] was 0.3 h. The same compound showed a concentration at 2 h in series [27] of 19 µM. The same compound returned a concentration at 4 h in series [28] of 20 µM. The Vd in series [9] amounted to 0.1 L/kg. This compound also showed an Intrinsic clearance in series [12] of 0.3 nmol/min/mg.
`FC(F)(F)Oc1ccc(-c2nnc(CCCCc3ccc4cccnc4n3)o2)cc1Cl`: the IC50 is above 20000 nM in series [6] and 180 nM in series [10]. In [29], this compound came in with a concentration at 2 h of 70 µM. In addition, the clearance in series [7] was found to be 2 mL/min/kg. Also, the half-life in series [8] was 1.3 h; in [31], 3.4 h. Moreover, the Vd in [9] is 0.2 L/kg. Besides, the bioavailability (usually the share of a dose that reaches the circulation, judged against a reference dose that is usually intravenous) in series [30] came to 87%. Besides, the Cmax in series [11] was 56 µM; in series [33] it was 72 µM. Further, in series [12], the Intrinsic clearance is 0.17 nmol/min/mg. In [32], this compound registered a concentration at 4 h of 40.5 µM. In addition, the AUC(0-t) at 24 h in [34] amounted to 472 µM·h. The Tmax in [35] amounted to 1.5 h.
